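Step 1: Grow cells in 96-well plates. Step 2: Expose to compound for 48 hours at 5 concentrations. Step 3: Interpolate endpoints linearly; if unreached, use highest concentration. Abbreviation: GI50, concentration required for 50% inhibition of growth. TGI: concentration producing complete growth inhibition.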
What was measured:
Assay in all cases: inhibition of tumour cell growth, NCI panel, 48 h
[1] = system: LOX IMVI melanoma
[2] = system: SK-OV-3 ovarian
[3] = system: U251 CNS
[4] = system: KM12 colon
[5] = system: 786-0 renal
[6] = system: ACHN renal
[7] = system: BT-549 breast
[8] = system: TK-10 renal
[9] = system: NCI-H226 lung
[10] = system: OVCAR-8 ovarian
[11] = system: EKVX NSCLC
[12] = system: RPMI-8226 leukemia
[13] = system: OVCAR-3 ovarian
[14] = system: OVCAR-5 ovarian
[15] = system: A498 renal
[16] = system: SK-MEL-5 melanoma
[17] = system: M14 melanoma
[18] = system: UO-31 renal
[19] = system: MDA-N
[20] = system: SF-268 CNS
[21] = system: MDA-MB-435
[22] = system: CCRF-CEM leukemia
[23] = system: A549 NSCLC
[24] = system: HCC-2998 colon
[25] = system: NCI-H23 lung
[26] = system: HT29 colon
[27] = system: NCI-H522 lung
[28] = system: HS 578T breast
[29] = system: SW-620 colon
[30] = system: SNB-75 CNS
[31] = system: CAKI-1 renal
[32] = system: OVCAR-4 ovarian
[33] = system: UACC-62 melanoma
[34] = system: PC-3 prostate
[35] = system: SNB-19 CNS
[36] = system: MALME-3M melanoma
[37] = system: SK-MEL-28 melanoma
[38] = system: HL-60(TB) leukemia
[39] = system: K-562 leukemia
[40] = system: NCI-H460 lung
[41] = system: DU-145 prostate
[42] = system: T-47D breast
[43] = system: HCT-116 colon
[44] = system: COLO 205 colon
[45] = system: MDA-MB-231 breast
[46] = system: UACC-257 melanoma
[47] = system: HOP-62 NSCLC
[48] = system: RXF 393 renal
[49] = system: SN12C renal
[50] = system: MCF7 breast
[51] = system: HCT-15 colon
[52] = system: NCI/ADR-RES ovarian
[53] = system: SK-MEL-2 melanoma
[54] = system: HOP-92 NSCLC
[55] = system: SF-295 CNS
[56] = system: IGROV1 ovarian
[57] = system: MOLT-4 leukemia
[58] = system: SF-539 CNS
[59] = system: SR leukemia

O=C1c2ccccc2-c2ccc(N=[N+]([O-])c3ccc4c(c3)C(=O)c3ccccc3-4)cc21
TGI [1]: > 100 µM
TGI [2]: > 100 µM
TGI [3]: > 100 µM
TGI [4]: > 100 µM
TGI [5]: > 100 µM
TGI [6]: > 100 µM
TGI [7]: > 100 µM
TGI [8]: > 100 µM
TGI [9]: > 100 µM
TGI [10]: > 100 µM
TGI [11]: > 100 µM
TGI [12]: > 100 µM
TGI [13]: > 100 µM
TGI [14]: > 100 µM
TGI [15]: > 100 µM
TGI [16]: > 100 µM
TGI [17]: > 100 µM
TGI [18]: > 100 µM
TGI [19]: > 100 µM
TGI [20]: > 100 µM
TGI [21]: > 100 µM
TGI [22]: > 100 µM
TGI [23]: > 100 µM
TGI [24]: > 100 µM
TGI [25]: > 100 µM
TGI [26]: > 100 µM
TGI [27]: > 100 µM
TGI [28]: > 100 µM
TGI [29]: > 100 µM
TGI [30]: > 100 µM
TGI [31]: > 100 µM
TGI [32]: > 100 µM
TGI [33]: > 100 µM
TGI [34]: > 100 µM
TGI [35]: > 100 µM
TGI [36]: > 100 µM
TGI [37]: > 100 µM
TGI [38]: > 100 µM
TGI [39]: > 100 µM
TGI [40]: > 100 µM
TGI [41]: > 100 µM
TGI [42]: > 100 µM
TGI [43]: > 100 µM
TGI [44]: > 100 µM
TGI [45]: > 100 µM
TGI [46]: > 100 µM
TGI [47]: > 100 µM
TGI [48]: > 100 µM
TGI [49]: > 100 µM
TGI [50]: > 100 µM
TGI [51]: > 100 µM
TGI [52]: > 100 µM
TGI [53]: > 100 µM
TGI [54]: > 100 µM
TGI [55]: > 100 µM
TGI [56]: > 100 µM
TGI [57]: > 100 µM

CC(=O)N1c2ccccc2Sc2cc(C(O)(C(F)(F)F)C(F)(F)F)ccc21
TGI [1]: > 10 µM
TGI [2]: > 10 µM
TGI [3]: > 10 µM
TGI [4]: > 10 µM
TGI [5]: > 10 µM
TGI [6]: > 10 µM
TGI [7]: > 10 µM
TGI [8]: > 10 µM
TGI [9]: > 10 µM
TGI [10]: > 10 µM
TGI [11]: > 10 µM
TGI [13]: > 10 µM
TGI [14]: > 10 µM
TGI [15]: > 10 µM
TGI [16]: > 10 µM
TGI [17]: > 10 µM
TGI [18]: > 10 µM
TGI [19]: > 10 µM
TGI [20]: > 10 µM
TGI [21]: > 10 µM
TGI [22]: > 10 µM
TGI [23]: > 10 µM
TGI [24]: > 10 µM
TGI [25]: > 10 µM
TGI [26]: > 10 µM
TGI [27]: > 10 µM
TGI [28]: > 10 µM
TGI [58]: > 10 µM
TGI [29]: > 10 µM
TGI [30]: > 10 µM
TGI [31]: > 10 µM
TGI [32]: > 10 µM
TGI [33]: > 10 µM
TGI [34]: > 10 µM
TGI [35]: > 10 µM
TGI [36]: > 10 µM
TGI [37]: > 10 µM
TGI [38]: > 10 µM
TGI [39]: > 10 µM
TGI [40]: > 10 µM
TGI [41]: > 10 µM
TGI [42]: > 10 µM
TGI [43]: > 10 µM
TGI [44]: > 10 µM
TGI [45]: > 10 µM
TGI [46]: > 10 µM
TGI [47]: > 10 µM
TGI [48]: > 10 µM
TGI [49]: > 10 µM
TGI [50]: > 10 µM
TGI [51]: > 10 µM
TGI [52]: > 10 µM
TGI [53]: > 10 µM
TGI [54]: > 10 µM
TGI [55]: > 10 µM
TGI [56]: > 10 µM
TGI [57]: > 10 µM

Oc1cc2cccc[n+]2c2cccc(Cl)c12
GI50 [3]: 42 µM
GI50 [6]: 21.7 µM
TGI [6]: 52.5 µM
GI50 [7]: 50.6 µM
GI50 [11]: 38.4 µM
GI50 [12]: 40.4 µM
GI50 [16]: 19.7 µM
TGI [16]: 34.7 µM
GI50 [17]: 66.8 µM
GI50 [18]: 31.3 µM
TGI [18]: 93 µM
GI50 [19]: 16.9 µM
TGI [19]: 33.5 µM
GI50 [21]: 17.4 µM
TGI [21]: 40.8 µM
GI50 [22]: 26.1 µM
TGI [22]: 73.7 µM
GI50 [24]: 52.4 µM
GI50 [25]: 25.2 µM
TGI [25]: 72.5 µM
GI50 [26]: 40.7 µM
GI50 [27]: 94.8 µM
GI50 [58]: 71.8 µM
GI50 [29]: 32.8 µM
GI50 [32]: 16.2 µM
TGI [32]: 39.5 µM
GI50 [33]: 32.6 µM
GI50 [59]: 67.5 µM
GI50 [35]: 92.3 µM
GI50 [36]: 18.4 µM
TGI [36]: 40.4 µM
GI50 [37]: 21.8 µM
GI50 [38]: 35.8 µM
GI50 [39]: 25.4 µM
TGI [39]: 76 µM
GI50 [40]: 82.1 µM
GI50 [41]: 62.3 µM
GI50 [43]: 55.7 µM
GI50 [44]: 26.3 µM
TGI [44]: 87.3 µM
GI50 [45]: 91.5 µM
GI50 [46]: 21.7 µM
TGI [46]: 48.4 µM
GI50 [48]: 26.1 µM
TGI [48]: 74.6 µM
GI50 [49]: 17.2 µM
TGI [49]: 45.4 µM
GI50 [50]: 16.7 µM
TGI [50]: 36.5 µM
GI50 [51]: 49.4 µM
GI50 [54]: 15.8 µM
TGI [54]: 71.5 µM
GI50 [55]: 95.3 µM
GI50 [56]: 31.4 µM
GI50 [57]: 34.9 µM
